Values joined by “and” are separate entries in the source; they are usually repeats but may differ in a detail not shown here. Equal values may be shown once. Inconclusive results and toxic doses are left out. Cut-off read from the data, not from the text of the source: active = T/C of 150% or more; inactive = T/C below 125%.
System: L1210 leukemia ip in BDF1 mice, survival T/C
Test: NCI In Vivo Anticancer Drug Screen. Data for tumor model L1210 Leukemia (intraperitoneal) in B6D2F1 (BDF1) mice
Details: endpoint: mean survival time, higher = longer survival
Procedure, shortened: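 Read-out is survival time, reported as the treated-group measurement over the vehicle-control measurement.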

[1] = dose: 100.0 mg/kg/injection, schedule: Q04DX003 (ip), vehicle: saline
[2] = dose: 200.0 mg/kg/injection, schedule: Q04DX003 (ip), vehicle: saline
[3] = dose: 100.0 mg/kg/injection, schedule: Q01DX001 (ip), vehicle: carboxymethylcellulose (CMC)
[4] = dose: 100.0 mg/kg/injection, schedule: Q01DX009 (ip), vehicle: saline with Tween-80
[5] = dose: 200.0 mg/kg/injection, schedule: Q01DX001 (ip), vehicle: carboxymethylcellulose (CMC)
[6] = dose: 200.0 mg/kg/injection, schedule: Q01DX009 (ip), vehicle: saline with Tween-80
[7] = dose: 400.0 mg/kg/injection, schedule: Q01DX001 (ip), vehicle: carboxymethylcellulose (CMC)
[8] = dose: 400.0 mg/kg/injection, schedule: Q01DX009 (ip), vehicle: saline with Tween-80
[9] = dose: 100.0 mg/kg/injection, schedule: Q04DX003 (ip), vehicle: Klucel (hydroxypropylcellulose) (HPC)
[10] = dose: 200.0 mg/kg/injection, schedule: Q04DX003 (ip), vehicle: Klucel (hydroxypropylcellulose) (HPC)
[11] = dose: 400.0 mg/kg/injection, schedule: Q04DX003 (ip), vehicle: Klucel (hydroxypropylcellulose) (HPC)
[12] = dose: 400.0 mg/kg/injection, schedule: Q04DX003 (ip), vehicle: saline
[13] = dose: 100.0 mg/kg/injection, schedule: Q04DX003 (ip), vehicle: saline with Tween-80
[14] = dose: 200.0 mg/kg/injection, schedule: Q04DX003 (ip), vehicle: saline with Tween-80
[15] = dose: 400.0 mg/kg/injection, schedule: Q04DX003 (ip), vehicle: saline with Tween-80
[16] = dose: 50.0 mg/kg/injection, schedule: Q01DX009 (ip), vehicle: Klucel (hydroxypropylcellulose) (HPC)
[17] = dose: 100.0 mg/kg/injection, schedule: Q01DX009 (ip), vehicle: Klucel (hydroxypropylcellulose) (HPC)
[18] = dose: 200.0 mg/kg/injection, schedule: Q01DX009 (ip), vehicle: Klucel (hydroxypropylcellulose) (HPC)

Measured: T/C

O=[N+]([O-])c1ccc(-c2nn[nH]n2)cc1
inactive: dose: 100.0 mg/kg/injection, schedule: Q01DX001 (ip), vehicle: saline 92 % of control | [1] 103 % of control | dose: 200.0 mg/kg/injection, schedule: Q01DX001 (ip), vehicle: saline 103 % of control | [2] 93 % of control | dose: 264.0 mg/kg/injection, schedule: Q04DX003 (ip), vehicle: acetone 96 % of control | dose: 264.0 mg/kg/injection, schedule: Q04DX003 (ip), vehicle: saline with Tween-80 106 % of control | dose: 400.0 mg/kg/injection, schedule: Q01DX001 (ip), vehicle: saline 105 % of control | dose: 400.0 mg/kg/injection, schedule: Q04DX003 (ip), vehicle: acetone 102 % of control

C[N+](C)(C)CC1(COC(=O)C(O)(c2ccccc2)c2ccccc2)CC1
inactive: dose: 12.0 mg/kg/injection, schedule: Q04DX003 (ip), vehicle: Klucel (hydroxypropylcellulose) (HPC) 97 % of control | dose: 25.0 mg/kg/injection, schedule: Q01DX001 (ip), vehicle: Klucel (hydroxypropylcellulose) (HPC) 93 % of control | dose: 25.0 mg/kg/injection, schedule: Q04DX003 (ip), vehicle: Klucel (hydroxypropylcellulose) (HPC) 105 % of control | dose: 50.0 mg/kg/injection, schedule: Q01DX001 (ip), vehicle: Klucel (hydroxypropylcellulose) (HPC) 100 % of control | dose: 50.0 mg/kg/injection, schedule: Q04DX003 (ip), vehicle: Klucel (hydroxypropylcellulose) (HPC) 95 % of control | dose: 100.0 mg/kg/injection, schedule: Q01DX001 (ip), vehicle: Klucel (hydroxypropylcellulose) (HPC) 96 % of control and 100 % of control

CCCCCCCCCCCCCCCCSSCCCCCCCCCCCCCCCC
inactive: [3] 93 % of control | [4] 92 % of control | [5] 95 % of control | [6] 95 % of control | [7] 95 % of control | [8] 87 % of control

O=C(NS(=O)(=O)c1ccc(Cl)cc1)OCCCl
inactive: [9] 96 % of control | [10] 95 % of control | [11] 98 % of control

O=[N+]([O-])c1cc(-c2ccccc2)cc([N+](=O)[O-])c1Cl
inactive: dose: 50.0 mg/kg/injection, schedule: Q01DX009 (ip), vehicle: acetone 97 % of control | dose: 100.0 mg/kg/injection, schedule: Q01DX009 (ip), vehicle: acetone 100 % of control | [1] 96 % of control | dose: 200.0 mg/kg/injection, schedule: Q01DX009 (ip), vehicle: acetone 95 % of control | [2] 102 % of control | [12] 102 % of control

O=c1cc(Cl)c2ccccc2[nH]1
inactive: [4] 95 % of control | [13] 103 % of control | [6] 91 % of control | [14] 94 % of control | [8] 100 % of control | [15] 103 % of control

N=C(N)c1ccc(-n2nc3ccc(C(=N)N)cc3n2)cc1
inactive: dose: 6.25 mg/kg/injection, schedule: Q04DX003 (ip), vehicle: saline 100 % of control and 103 % of control | dose: 12.5 mg/kg/injection, schedule: Q04DX003 (ip), vehicle: saline 100 % of control | dose: 25.0 mg/kg/injection, schedule: Q04DX003 (ip), vehicle: saline 100 % of control

CC1=CC(=O)[C@@H](O)[C@]2(C)[C@H]3[C@@]4(O)OC[C@]35[C@H]([C@@H](C)[C@H]4O)[C@@H](O)C(=O)O[C@@H]5C[C@@H]12
inactive: dose: 2.5 mg/kg/injection, schedule: Q01DX009 (ip), vehicle: saline 107 % of control | dose: 5.0 mg/kg/injection, schedule: Q01DX009 (ip), vehicle: saline 96 % of control | dose: 10.0 mg/kg/injection, schedule: Q01DX009 (ip), vehicle: saline 102 % of control | dose: 20.0 mg/kg/injection, schedule: Q01DX009 (ip), vehicle: saline 100 % of control

NC(=O)c1cccc([N+](=O)[O-])c1
inactive: [13] 101 % of control | [14] 95 % of control | [15] 93 % of control

CCC(C)(C)C(=O)Nc1cccc(O)c1
inactive: [13] 92 % of control | [14] 90 % of control | [15] 95 % of control

O=C(C1C(c2ccccc2)N1Cc1ccccc1)C1C(c2ccccc2)N1Cc1ccccc1 (stereo unspecified)
inactive: dose: 75.0 mg/kg/injection, schedule: Q01DX001 (ip), vehicle: Klucel (hydroxypropylcellulose) (HPC) 101 % of control | dose: 150.0 mg/kg/injection, schedule: Q01DX001 (ip), vehicle: Klucel (hydroxypropylcellulose) (HPC) 88 % of control | dose: 300.0 mg/kg/injection, schedule: Q01DX001 (ip), vehicle: Klucel (hydroxypropylcellulose) (HPC) 93 % of control

CC1=Nc2ccc([N+](=O)[O-])cc2N=C(C)C1
inactive: dose: 100.0 mg/kg/injection, schedule: Q01DX009 (ip), vehicle: saline 95 % of control | [1] 105 % of control | dose: 200.0 mg/kg/injection, schedule: Q01DX009 (ip), vehicle: saline 93 % of control | [2] 96 % of control | dose: 400.0 mg/kg/injection, schedule: Q01DX009 (ip), vehicle: saline 92 % of control | [12] 96 % of control

COc1cc(Br)c(C(C)CC(=O)O)cc1OC (stereo unspecified)
inactive: [13] 103 % of control | [14] 98 % of control | [15] 92 % of control

Cc1ccc([Si](C)Cl)cc1
inactive: [13] 98 % of control | [14] 94 % of control | [15] 90 % of control

CN(C)Cc1ccccc1COC(=O)c1ccc([N+](=O)[O-])cc1
inactive: dose: 75.0 mg/kg/injection, schedule: Q04DX002 (ip), vehicle: Klucel (hydroxypropylcellulose) (HPC) 97 % of control | dose: 150.0 mg/kg/injection, schedule: Q04DX002 (ip), vehicle: Klucel (hydroxypropylcellulose) (HPC) 105 % of control | dose: 300.0 mg/kg/injection, schedule: Q04DX002 (ip), vehicle: Klucel (hydroxypropylcellulose) (HPC) 97 % of control

CN1C(=S)SC(c2ccccc2)N(C)C1c1ccccc1 (stereo unspecified)
inactive: [16] 101 % of control | [17] 98 % of control | [9] 89 % of control | [18] 106 % of control | [10] 89 % of control | [11] 86 % of control

CCOc1ccc(NC(=O)COc2ccc(Cl)cc2Cl)cc1
inactive: dose: 100.0 mg/kg/injection, schedule: Q04DX002 (ip), vehicle: Klucel (hydroxypropylcellulose) (HPC) 89 % of control | dose: 200.0 mg/kg/injection, schedule: Q04DX002 (ip), vehicle: Klucel (hydroxypropylcellulose) (HPC) 101 % of control | dose: 400.0 mg/kg/injection, schedule: Q04DX002 (ip), vehicle: Klucel (hydroxypropylcellulose) (HPC) 92 % of control

CCN(CC)C(=O)C1C2C=CC(CC2)C1C(=O)N(CC)CC (stereo unspecified)
inactive: [1] 100 % of control | [2] 96 % of control | [12] 96 % of control

CN(C)S(=O)(=O)c1ccc(CCCCCCc2ccc(S(=O)(=O)N(C)C)cc2)cc1
inactive: [3] 96 % of control | [5] 102 % of control | [7] 91 % of control

Cc1cc2nc(C)c(=O)[nH]c2cc1C
inactive: [17] 95 % of control | [9] 96 % of control | [18] 98 % of control | [10] 92 % of control | dose: 400.0 mg/kg/injection, schedule: Q01DX009 (ip), vehicle: Klucel (hydroxypropylcellulose) (HPC) 91 % of control | [11] 92 % of control

COc1cccc(C2CCCCC2OS(=O)(=O)c2ccc(C)cc2)c1 (stereo unspecified)
inactive: dose: 100.0 mg/kg/injection, schedule: Q01DX001 (ip), vehicle: steriod suspending solution 106 % of control | dose: 200.0 mg/kg/injection, schedule: Q01DX001 (ip), vehicle: steriod suspending solution 101 % of control | dose: 400.0 mg/kg/injection, schedule: Q01DX001 (ip), vehicle: steriod suspending solution 91 % of control

CN=C(NC)c1ccc(NC(=O)c2ccc(C(=O)Nc3ccc(C(=NC)NC)cc3)c([N+](=O)[O-])c2)cc1
inactive: dose: 1.88 mg/kg/injection, schedule: Q01DX Z (ip), vehicle: saline 100 % of control | dose: 3.75 mg/kg/injection, schedule: Q01DX Z (ip), vehicle: saline 111 % of control | dose: 7.5 mg/kg/injection, schedule: Q01DX Z (ip), vehicle: saline 108 % of control

COc1ccc([N+](=O)[O-])cc1NC(=O)Nc1ccccc1C(N)=O
inactive: [16] 105 % of control | [17] 101 % of control | [18] 97 % of control
